In patent US20230346709A1, “TABLET CONTAINING VALSARTAN AND SACUBITRIL” (ALFRED E. TIEFENBACHER (GMBH & CO. KG), priority 2017, published 2023):

Experiment: Storage stability of the tablets, solid form of the active ingredients by powder XRD
Format: physicochemical
Conditions: after storage in Alu-Alu blister, three months at 40° C./75% RH
Procedure: The XRD measurements were performed using X-ray source with Cu K-alpha radiation, Empyrean system (or equivalent), PIXcel detector, divergence slit 0.25° fixed, anti-scattering slit 0.5°, soller slits 2×0.02 radians, Nickel filter to suppress back ground and Cu K-beta components, current 40 mA, voltage 45 kV, 2° - 40 ° 2θ, spinning 30 RPM, step size 0.013° with total measurement time 1 Hr at room temperature. 1. Grind about two tablets to fine powder using Agate mortar and pestle gently. Prepare the sample (approx. 350 mg) using PANalytical sample preparation kit by ‘Back loading technique’. The sample surface should be smooth and in parallel to sample holder surface. Clean the outer edges of the holder with tissue paper to avoid sample contaminations. 2. Place the prepared sample holder carefully on the sample stage of the XRD instrument and analyze as per the above XRD method conditions at room temperature.

Structure (SMILES)	change of solid form of the active ingredient in the tablets, powder XRD
CCOC(=O)[C@H](C)C[C@@H](Cc1ccc(-c2ccccc2)cc1)NC(=O)CCC(=O)O [sacubitril monosodium]	no polymorph conversion or amorphization
CCCCC(=O)N(Cc1ccc(-c2ccccc2-c2nnn[nH]2)cc1)[C@H](C(=O)O)C(C)C [valsartan disodium]	no crystallization
CCCCC(=O)N(Cc1ccc(-c2ccccc2-c2nnn[n-]2)cc1)[C@H](C(=O)[O-])C(C)C.CCOC(=O)[C@H](C)C[C@@H](Cc1ccc(-c2ccccc2)cc1)NC(=O)CCC(=O)[O-].O.[Na+].[Na+].[Na+] [LCZ696]	no crystallization
